Test results published in US6300501A, “Histidine-(N-benzyl glycinamide) inhibitors of protein farnesyl transferase” (Warner-Lambert Company, priority 1998, dated 2001).
Read-outs that look alike come from different tables or passages of the source.

Key:
[1] = target: T1, SF9 affinity purified rat farnesyl protein transferase (Rattus norvegicus, UniProt Q02293+Q04631); assay: PFT inhibitory activity (radiolabeled farnesyl pyrophosphate, streptavidin bead assay); type: biochemical
T1 construct: made in house; host or cells: Sf9 insect cells (baculovirus system inferred from b7)
In short: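 HEPES pH 7.4 with 5 mM potassium phosphate (also run without), 20 μM ZnCl2, 5 mM DTT, 5 mM MgCl2, 0.1% PEG 8000; [3H]farnesyl pyrophosphate 134 nM and biotinyl-Ahe-TKCVIM peptide 0.2 μM final. Incubated 30 min at 30° C, stopped with acidic magnesium acetate/streptavidin bead buffer; bead-bound radioactivity counted.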

[2] = tested on: ras farnesylation in ras-transformed cells; assay: Gel shift assay; type: cell-based; details: ras-transformed cells, 18-hour incubation; read-out: Gel Shift (μM) MED (minimal effective dose to observe inhibition of ras farnesylation)
In short: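 Ras-transformed cells (2×10^6 per condition) treated with farnesylation inhibitor at varying concentrations for 18 h. Ras immunoprecipitated from lysates with Y13-259, resolved on 14% SDS gels and detected by pan-ras Western blot with ECL, farnesylated and unfarnesylated ras separating by mobility shift.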

[3] = tested on: H61 cells: NIH transformed 3T3 H-ras cells; assay: Clonogenic assay (6 well plates, soft agar); type: cell-based; details: colonies counted after Day 13, read-out: Clonogenic Assay IC50
In short: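 Soft-agar colony formation: cells seeded in 0.3% agar top layer with 20% calf serum over a 0.6% agar base, drug or DMSO added at 4 µL per mL agar/medium. Incubated at 37 °C, 5% CO2; INT (1 mg/mL) added on day 13 to stain colonies.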

[4] = tested on: H61 tumor cell xenografts; assay: In vivo assay: H61 tumor xenografts in nude mice
Protocol: The compound described in Example 15 was tested for its ability to inhibit the growth of H61 tumor cell xenografts in nude mice. H61 Cells are fibroblasts transformed to a malignant state by transfection with an activated mutant form of human h-ras. Ten to 30 mg fragments of H61 tumors were inoculated SC (subcutaneously) in the axial region into female nude mice with a trocar needle on day zero of the experiment. The mice were randomized to treatment groups and were then given SC injections of the compound described in Example 15 suspended in 10% cremofor/10% ethanol/80% water twice each day on Days 3-17 of the experiment. At Day 12 of the experiment, the median control tumor burden was 1958 mg as assessed by caliper measurements.

[5] = tested on: EJ-1 human bladder carcinoma, HT1080 human fibrosarcoma and human colon carcinoma xenografts; details: 100 mg/kg; cited from earlier work
[6] = HEPES buffer pH 7.4, without 5 mM potassium phosphate, read-out: IC50 (μM) Hepes
[7] = HEPES buffer pH 7.4 containing 5 mM potassium phosphate, read-out: IC50 (μM) 5 mM K3 PO4 -2

T1 sequence (Q02293 whole entry, one chain of several): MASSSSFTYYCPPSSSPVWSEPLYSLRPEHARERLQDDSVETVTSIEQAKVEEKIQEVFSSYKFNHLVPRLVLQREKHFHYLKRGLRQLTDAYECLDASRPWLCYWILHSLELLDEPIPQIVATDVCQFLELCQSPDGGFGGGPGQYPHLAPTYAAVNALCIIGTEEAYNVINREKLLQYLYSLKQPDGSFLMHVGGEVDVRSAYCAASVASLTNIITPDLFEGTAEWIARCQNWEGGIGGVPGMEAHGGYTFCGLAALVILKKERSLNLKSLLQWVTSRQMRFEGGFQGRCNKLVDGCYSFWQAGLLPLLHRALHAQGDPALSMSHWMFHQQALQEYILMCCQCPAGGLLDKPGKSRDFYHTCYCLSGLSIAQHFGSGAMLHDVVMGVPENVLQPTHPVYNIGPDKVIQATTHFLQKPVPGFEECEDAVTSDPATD

Row | SMILES | IC50 [1, 6] | IC50 [1, 7] | minimal effective concentration [2] | IC50 ([3]; 312 h) | median tumor burden ([4]; 125 mg/kg/injection SC twice each day, Days 3-17, Day 12, median control tumor burden 1958 mg) | inhibition of tumor growth ([4]; 125 mg/kg/injection SC twice each day, Day 12) | tumor growth delay ([4]; 125 and 78 mg/kg/injection dose levels) | tolerability / host toxicity ([4]; 125 and 78 mg/kg/injection dose levels, nude mice) | IC50 [3] | tumor growth [5]
1 | CC(C)(CNC(=O)CN(Cc1ccc(OCc2ccccc2)cc1)C(=O)[C@H](Cc1cnc[nH]1)NC(=O)OCc1ccccc1)c1ccccc1 [Example 15, (S)-[1-{(4-Benzyloxy-benzyl)-[(2-methyl-2-phenyl-propylcarbamoyl)-methyl]-carbamoyl}-2-(3H-imidazole-4-yl)-ethyl]-carbamic Acid Benzyl Ester] | 0.12 µM | 0.007 µM | 0.01 to 0.05 µM | 190 nM | 106 mg | 95% | tumor growth delay also consistent with significant inhibition of tumor growth | well-tolerated with minimal or no host toxicity | – | –
2 | CC(CNC(=O)CN(Cc1ccc(OCc2ccncc2)cc1)C(=O)[C@H](Cc1c[nH]cn1)NC(=O)OCc1ccccc1)c1ccccc1 (stereo partly drawn) [Example 34, (S)-(2-(1H-Imidazole-4-yl)-1-{[(2-phenyl-propyl-carbamoyl)-methyl]-[4-(pyridin-4-ylmethoxy)-benzyl]-carbamoyl}-ethyl)-carbamic Acid Benzyl Aster] | 0.097 µM | 0.002 µM | 0.05 µM | – | – | – | – | – | 140 nM | –
3 | COc1cccc(CN(CC(=O)NCC(C)c2ccccc2)C(=O)[C@H](Cc2c[nH]cn2)NC(=O)OCc2ccccc2)c1 (stereo partly drawn) [Example 35, (S)-(2-(1H-Imidazole-4-yl)-1-{(3-methoxy-benzyl)-[(2-phenyl-propylcarbamoyl)-methyl]-carbamoyl}-ethyl)-carbamic Acid Benzyl Ester] | 2.1 µM | 0.009 µM | 0.2 µM | > 1000 nM | – | – | – | – | – | –
4 | CC(CNC(=O)CN(Cc1ccc(OCc2cccnc2)cc1)C(=O)[C@H](Cc1c[nH]cn1)NC(=O)OCc1ccccc1)c1ccccc1 (stereo partly drawn) [Example 36, (S)-(2-(1H-Imidazole-4-yl)-1-{[(2-phenyl-propylcarbamoyl)-methyl]-[4-(pyridin-3-ylmethoxy)-benzyl]-carbamoyl}-ethyl)-carbamic Acid Benzyl Ester] | 0.45 µM | 0.007 µM | ≥ 0.05 µM | 320 nM | – | – | – | – | – | –
5 | CC(CNC(=O)CN(Cc1ccc(C(F)(F)F)cc1)C(=O)[C@H](Cc1c[nH]cn1)NC(=O)OCc1ccccc1)c1ccccc1 (stereo partly drawn) [Example 38, (S)-{2-(1H-Imidazole-4-yl)-1-[[(2-phenyl-propylcarbamoyl)-methyl]-(4-trifluoromethyl-benzyl)-carbamoyl]-ethyl}-carbamic Acid Benzyl Ester] | 1.6 µM | 0.013 µM | 0.2 µM | 220 nM | – | – | – | – | – | –
6 | CC(C)(CNC(=O)CN(Cc1cccnc1)C(=O)[C@H](Cc1c[nH]cn1)NC(=O)OCc1ccccc1)c1ccccc1 [Example 39, (S)-(2-(1H-Imidazole-4-yl)-1-{[(2-methyl-2-phenyl-propylcarbamoyl)-methyl]-pyridin-3-ylmethyl-carbamoyl}-ethyl)-carbamic Acid Benzyl Ester] | 9.5 µM | 0.1 µM | > 0.2 µM | > 1000 nM | – | – | – | – | – | –
7 | CC(C)(CNC(=O)CN(Cc1ccc(OCc2ccccn2)cc1)C(=O)[C@H](Cc1c[nH]cn1)NC(=O)OCc1ccccc1)c1ccccc1 [Example 40, (S)-(2-(1H-Imidazole-4-yl)-1-{[(2-methyl-2-phenyl-propylcarbamoyl)-methyl]-[4-(pyridin-2-ylmethoxy)-benzyl]-carbamoyl}-ethyl)-carbamic Acid Benzyl Ester] | 0.12 µM | 0.001 µM | 0.01 µM | 190 nM | – | – | – | – | – | –
8 | CN(Cc1ccccc1)C(=O)N[C@@H](Cc1c[nH]cn1)C(=O)N(CC(=O)NCC(C)(C)c1ccccc1)Cc1ccc(OCc2ccccc2)cc1 [Example 41, (S)-2-(3-Benzyl-3-methyl-ureido)-N-(4-benzyloxy-benzyl)-3-(1H-imidazole-4-yl)-N-[(2-methyl-2-phenyl-propylcarbamoyl)-methyl]-propionamide] | 0.009 µM | 0.004 µM | 0.05 µM | 40 nM | – | – | – | – | – | –
9 | CC(C)(CNC(=O)CN(Cc1ccccc1)C(=O)[C@H](Cc1c[nH]cn1)NC(=O)OCc1ccccc1)c1ccccc1 [Example 42, (S)-[1-{Benzyl-[(2-methyl-2-phenyl-propylcarbamoyl)-methyl]-carbamoyl}-2-(1H-imidazole-4-yl)-ethyl]-carbamic Acid Benzyl Ester] | 0.6 µM | 0.005 µM | 0.05 µM | 510 nM | – | – | – | – | – | –
10 | Cc1ccccc1CN(CC(=O)NCC(C)c1ccccc1)C(=O)[C@H](Cc1c[nH]cn1)NC(=O)OCc1ccccc1 (some centres unmarked) [Example 43] | 3.9 µM | 0.038 µM | 0.2 µM | – | – | – | – | – | > 1000 nM | –
11 | COc1ccc(CN(CC(=O)NCC(C)(C)c2ccccc2)C(=O)[C@H](Cc2c[nH]cn2)NC(=O)OCc2ccccc2)cc1 [Example 44, (S)-(2-(1H-Imidazole-4-yl)-1-{(4-methoxy-benzyl)-[(2-methyl-2-phenyl-propylcarbamoyl)-methyl]-carbamoyl}-ethyl)-carbamic Acid Benzyl Ester] | 0.3 µM | 0.002 µM | 0.02 µM | 360 nM | – | – | – | – | – | –
12 | N#CC(CNC(=O)CN(Cc1ccc(OCc2ccccc2)cc1)C(=O)[C@H](Cc1c[nH]cn1)NC(=O)OCc1ccccc1)c1ccccc1 (some centres unmarked) [Example 45] | 0.35 µM | 0.0024 µM | 0.05 µM | – | – | – | – | – | 140 nM | –
13 | Cc1cccc(CN(CC(=O)NCC(C)c2ccccc2)C(=O)[C@H](Cc2c[nH]cn2)NC(=O)OCc2ccccc2)c1 (stereo partly drawn) [Example 47, (S)-(2-(1H-Imidazole-4-yl)-1-{(3-methyl-benzyl)-[(2-phenyl-propylcarbamoyl)-methyl]-carbamoyl}-ethyl)-carbamic Acid Benzyl Ester] | 0.62 µM | 0.035 µM | 0.05 µM | 730 nM | – | – | – | – | – | –
14 | CC(C)(CNC(=O)CN(Cc1ccc(OCc2ccncc2)cc1)C(=O)[C@H](Cc1c[nH]cn1)NC(=O)OCc1ccccc1)c1ccccc1 [Example 49, (S)-(2-(1H-Imidazole-4-yl)-1-{[(2-methyl-2-phenyl-propylcarbamoyl)-methyl]-[4-(pyridin-4-ylmethoxy)-benzyl]-carbamoyl}-ethyl)-carbamic Acid Benzyl Ester] | 0.06 µM | 0.009 µM | 0.05 µM | 100 nM | – | – | – | – | – | –
15 | CC(C)(CNC(=O)CN(Cc1ccc(OCc2cccnc2)cc1)C(=O)[C@H](Cc1c[nH]cn1)NC(=O)OCc1ccccc1)c1ccccc1 [Example 50, (S)-(2-(1H-Imidazole-4-yl)-1-{[(2-methyl-2-phenyl-propylcarbamoyl)-methyl]-[4-(pyridin-3-ylmethoxy)-benzyl]-carbamoyl}-ethyl)-carbamic Acid Benzyl Ester] | 0.089 µM | 0.001 µM | 0.05 µM | 270 nM | – | – | – | – | – | –
16 | CC(CNC(=O)CN(Cc1ccc(-c2ccccc2)cc1)C(=O)[C@H](Cc1c[nH]cn1)NC(=O)OCc1ccccc1)c1ccccc1 (stereo partly drawn) [Example 51, (S)-[1-{Biphenyl-4-ylmethyl-[(2-phenyl-propylcarbamoyl)-methyl]-carbamoyl}-2-(1H-imidazole-4-yl)-ethyl]-carbamic Acid Benzyl Ester] | 0.88 µM | 0.004 µM | ≥ 0.05 µM | 250 nM | – | – | – | – | – | –
17 | CC(C)(CNC(=O)CN(Cc1ccc(-c2ccccc2)cc1)C(=O)[C@H](Cc1c[nH]cn1)NC(=O)OCc1ccccc1)c1ccccc1 [Example 52, (S)-[1-{Biphenyl-4-ylmethyl-[(2-methyl-2-phenyl-propylcarbamoyl)-methyl]-carbamoyl}-2-(1H-imidazole-4-yl)-ethyl]-carbamic Acid Benzyl Ester] | 0.48 µM | 0.004 µM | 0.05 µM | 520 nM | – | – | – | – | – | –
18 | O=C(CN(Cc1ccc(OCc2ccccc2)cc1)C(=O)[C@H](Cc1c[nH]cn1)NC(=O)OCc1ccccc1)NCCc1ccccc1Cl [Example 53] | 10.6 µM | 0.12 µM | 0.2 µM | – | – | – | – | – | 12400 nM | –
19 | COC(=O)[C@H](CCSC)NC(=O)[C@H](/C=C\[C@@H](/C=C/[C@@H](N)CS)C(C)C)Cc1ccccc1 [Example B1086] | – | – | – | – | – | – | – | – | – | inhibit tumor growth
